Results: patent US20240182475A1 (Université de Lausanne, priority 2021, published 2024)
Entries after “also recorded” stand apart in the source; their conditions may differ.

Columns and labels:
WT primary VSMC = assay: Primary vascular smooth muscle cell mineralization, wild type; format: cell-based, mouse; settings: secondary CPP 24 h, 50 uM, listed as Z20
Experimental: (§1) Primary VSMC were isolated from wild-type (WT) or CSE-deficient (CSE ko) mice. A) Alizarin red staining of WT or CSE ko VSMC stimulated with secondary CPP for 24 h in DMEM+10% FBS and treated or not with 50 uM of compound Z20. […] Statistical analysis was determined using one-way ANOVA (compared to WT vehicle) with ***p<0.001, ****p<0.0001.

primary murine tenocytes = assay: Primary murine tenocyte mineralization (Alizarin red); format: cell-based, mouse; settings: secondary CPP 24 h, 50 uM; listed as Z20
Experimental: A) Alizarin red absorbance at 570-630 nm of primary murine tenocytes stimulated with secondary CPP for 24 h in DMEM+10% FBS and treated or not with 50 uM of Z20. B) Percentage of cytotoxicity (LDH %) in tenocytes treated or not with Z20 for 24 h. Statistical analysis was determined using one-way ANOVA with ***p<0.001.
Chondrocytes were isolated from 6 days old mice (Cse KO, Cse tg, Cbs KO and corresponding WT mice) as described previously (Nasi, So, et al. 2016). Tenocytes were isolated from 6 to 8 weeks old mice (Cse KO and WT) and by double digestion in Collagenase IV NB standard grade (Witec AG). Chondrocytes were amplified in DMEM with 10% FBS and 1% Penicillin Streptomycin and used at P1. Tenocytes were amplified in αDMEM with 10% FBS, 0.2 mM L-ascorbic acid, 2-phosphate and 1% Penicillin Streptomycin and used at P1. For crystal formation analysis, cells were cultured for 14 days in calcification medium (BGJb (Gibco) medium with 10% FBS, 0.2 mM L-ascorbic acid, 2-phosphate, 20 mM β-glycerol phosphate and 1% Penicillin Streptomycin). Medium and stimulations were refreshed every 3 days of culture. Alternatively, in some experiments, cells were cultured for 24 h in medium supplemented with secondary calciprotein particles (CPP, final concentration equivalent to […] calcium) to induce calcification as previously described (Aghagolzadeh et al. 2017). […]

CSE ko primary VSMC = assay: Primary vascular smooth muscle cell mineralization, CSE ko; format: cell-based, mouse; settings: secondary CPP 24 h, 50 uM
Experimental: as §1

HaCaT cells = assay: Human keratinocyte line mineralization (Alizarin red); format: cell-based; settings: secondary CPP 24 h, different concentrations; listed as Z20
Experimental: Immortalized human keratinocytes HaCaT cells were stimulated with secondary CPP and different concentrations of the compound Z20 for 24 h. Cells were then stained with Alizarin Red. […] Statistical analysis was determined using one-way ANOVA with *p<0.05, ***p<0.001.

MOVAS cells = assay: Cytotoxicity assay, LDH release; format: cell-based, mouse; settings: at 2 uM
Experimental: A) Alizarin red staining of MOVAS cells stimulated with CPP for 24 h in DMEM+10% FBS in presence of different concentrations of compound 22401. […] The background (Alizarin red staining obtained with cells in the absence of CPP) was subtracted from all values. B) Percentage of cytotoxicity, as measured by LDH release, in MOVAS cells in the same conditions as A). Statistical analysis was determined using one-way ANOVA with *p<0.05, **p<0.01, ***p<0.001.
Measurement of lactate dehydrogenase (LDH) as a means of cytotoxicity assay was performed with using CytoTox-ONE Homogeneous Membrane Integrity Assay (Promega) according to the manufacturer's instructions. Values were calculated as percentage of cytotoxicity using the following formula: [(value in sample)−(background)]/[(value in Triton X-100-treated sample)−(background)]×100.

[1] = test system: WT murine primary chondrocytes; assay: Murine primary chondrocyte calcification (Alizarin red); format: cell-based, mouse; settings: sCPP 24 h, DMEM+10% FBS, 50 uM
Experimental: (a) WT and Cse-deficient chondrocytes were incubated with a CSE activator (SU004, 50 μM) previously identified by high-through put screen, or with the equivalent volume of DMSO (0.1%) for 24 hours in calcification medium. STS 25 mM was used as a positive control for calcification inhibition. Calcium-containing crystals were stained with Alizarin red and quantified. (b) Cytotoxicity was assessed by LDH measurement and expressed as % over 100% cytotoxicity. (c) IL-6 secretion was measured by ELISA in supernatant of WT chondrocytes incubated with SU004 50 μM or STS 25 mM for 24 hours in calcification medium. (d) Primary human chondrocytes from 3 OA patients (P1, P2, P3) were incubated with SU004 50 μM, or with the equivalent volume of DMSO (0.1%) for 24 hours in calcification medium. Calcium-containing crystals were stained with Alizarin red and quantified. (e) Cytotoxicity was assessed by LDH measurement and expressed as % over 100% cytotoxicity. (f) IL-6 secretion was measured by ELISA in supernatant of human chondrocytes incubated for 24 hours with SU004 50 μM in calcification medium. *p<0.05, ** p<0.01, ****p<0.0001.
Primary murine chondrocytes were stimulated with secondary calciprotein particles (sCPP) for 24 h in DMEM+10% FBS in presence of C5 or C6 at 50 uM or vehicle (DMSO). Mineralization was analyzed by Alizarin red staining of the cells (A) and quantified (B). Statistical analysis was determined using one-way ANOVA with **p<0.01 and ***p<0.001.
Chondrocytes were isolated from 6 days old mice (Cse KO, Cse tg, Cbs KO and corresponding WT mice) as described previously (Nasi, So, et al. 2016). Tenocytes were isolated from 6 to 8 weeks old mice (Cse KO and WT) and by double digestion in Collagenase IV NB standard grade (Witec AG). […]
After incubation in calcification media, supernatant was collected for ELISA and LDH measurement, and cell monolayer was washed in PBS, fixed in 10% formol and crystal deposition analyzed through Alizarin red staining and quantified as previously described

ATDCS chondrocytes = assay: ATDCS chondrocyte mineralization (Alizarin red); format: cell-based; settings: sCPP 24 h, different concentrations
Experimental: Alizarin red staining of ATDCS chondrocytes stimulated with sCPP for 24 h in DMEM+10% FBS in presence of different concentrations of compounds C5 and C6. The graphs show Alizarin red absorbance at 570-630 nm. Statistical analysis (in comparison to 0) was determined using one-way ANOVA with *p<0.05, **p<0.01, ***p<0.001, […].

Compound	Mineralization (Alizarin red, % over WT vehicle) (WT primary VSMC)	Mineralization (Alizarin red absorbance 570-630 nm) (primary murine tenocytes)	Mineralization (Alizarin red, % over WT vehicle) (CSE ko primary VSMC)	Mineralization (Alizarin red absorbance 570-630 nm) (HaCaT cells)	Cytotoxicity assay LDH release (% of cytotoxicity) (MOVAS cells) [% at]	Mineralization (Alizarin red) [1]	Mineralization (Alizarin red absorbance 570-630 nm) (ATDCS chondrocytes)
CCn1cnc2c(Nc3cnn(CC4CCCO4)c3)ncnc21 (stereo not shown) [Compound 13]	significant inhibition; also recorded: inhibits primary vascular smooth muscle cell mineralization	inhibited calcification; also recorded: inhibits primary murine tenocyte mineralization	no inhibition	inhibited calcification; also recorded: inhibits human keratinocyte line mineralization			
Cn1ncc2c(Nc3cnn(CC4CCCO4)c3)ncnc21 (stereo not shown) [Compound 8, N-{1-methyl-1H-pyrazolo[3,4-d]pyrimidin-4-yl}-1-[(oxolan-2-yl)methyl]-1H-pyrazol-4-amine]					15	inhibit primary murine chondrocyte mineralization	inhibit ATDCS mineralization in vitro in a dose dependent fashion
